# Experimental data from patent US7258999B2, “PTH responsive gene” (Wyeth, priority 2002, dated 2007).
# Tested on: PAIGB expression in ROS 17/2.8 cells
# Assay: Real time PCR of PAIGB expression in ROS 17/2.8 cells
# Type: cell-based, rat
# Conditions: 10 nM
# Text: Applicants performed multiplex real time PCR (TaqMan) analysis on previously DNAsed samples using gene specific probe and primers and 18S ribosomal RNA probe and primer sets purchased from Applied Biosystem. (Foster City, Calif.) The samples were DNAsed according to the protocol provided by Ambion (DNA-free kit). TaqMan probe and primers for PAIGB was identify using Primer Express computer program. The sequence for rat PAIGB TaqMan probe was 6FAM-5′[…] (SEQ ID NO: 16) forward and reverse primers were 5′[…] 3′ (SEQ ID NO:17) and 5′ […] 3′ (SEQ ID NO:18) respectively. The final concentrations for probes were 500 nM and 40 nM for PAIGB and 18S ribosomal RNA or GAPDH respectively. The concentrations of the primers were 500 nM for PAIGB forward and reversed primers while 18S primers were 10 and 20 nM for forward and reversed primer respectively or 40 nM for GAPDH primers. Standards for rat samples were made from rat tibia or brain RNA in the range of 250 ng to 0.1 ng, while standards for mouse specific TaqMan were made from mouse brain RNA and human standards from human brain RNA (Clonetech, Palo Alto, Calif.) spanning the same range of concentration. Primers and probes for mouse PAIGB were: forward 5′ […] 3′ (SEQ ID NO:19), reverse, 5′ […] (SEQ ID NO:21). Primers and probes for human PAIGB were: forward 5′ […] 3′ (SEQ ID NO:22), reverse 5′ […] 3′(SEQ ID NO: 24). The Taq-man analysis was done using ABI 7700 Sequence Detector under following conditions: 30 min at 48° C., 10 min at 95° C. and 40 cycles of 15 sec at 95° C. and 60 sec at 60° C. Analysis of real-time PCR analysis was performed using (Sequence Detector, Macintosh) program.
# Five cell types were primarily used in our experiments. Rat osteoblast cell line (ROS 17/2.8) that expresses moderate levels of PTH receptor 1 (Rodan et al, Rev. Eukaryotic Gene Expression 1:85-98, 1991) were used to perform in vitro experiments. ROS cells were maintained under standard cell culture conditions: 10% heat inactivated FBS in Dulbecco's Modified Eagle Medium with Nutrient Mixture F-12 (DMEM/F12) media, 1% Penicillin/Streptomycin and 1% Glutamax. Mouse cell line C3H10T½ (ATCC# CCL226) as a representative of mouse osteoprogenitor cell line were maintained in Eagles Minimal Essential Media (EMEM) with the addition of 10% heat inactivated FBS and 1% Penicillin/Streptomycin and 1% Glutamax. UMR106 rat osteoblastic cells (ATCC# CRL1661) were cultured in Dulbecco's Modified Eagle Medium (DMEM) supplemented with 10% heat inactivated FBS, 1% Penicillin/Streptomycin and 1% Glutamax. The U2OS human osteoblastic cells (ATCC# HTB96) were cultured in McCoy's 5A Medium Modified supplemented with 10% FBS, 1% Penicillin/Streptomycin and 1% Glutamax. The human HOB-03-CE6 cell line (Bodine, V. N. P., et. al., J. Cell. Biochem., 65: 368-387,1997) was maintained in phenol red free DMEM/F12 media supplemented with 10% heat inactivated FBS and 1% Penicillin/Streptomycin and 1% Glutamax.
# ROS 17/2.8 rat osteoblast cell line that express PTH receptor (˜80000 receptors/cell) were treated with increased doses of PTH: 1 nM, 10 nM, 100 nM and 1000 nM. Real time PCR using rat specific Taq-man probes and primers were used to examine the changes in PAIGB expression with PTH treatment.
# Time course of PTH induction of PAIGB expression was examined. ROS 17/2.8_cells were treated with 10 nM PTH and RNA was harvested at 1, 2, 4, 6, 8 and 24 hours post treatment.
substance,measurement,setting,value
human PTH (1-34),PAIGB message with increasing concentrations,"1 nM, 100 nM and 1000 nM",dose-dependent increase
same,maximal increase of PAIGB expression,4 hours time point,2.66+/−0.3
same,effect on PAIGB expression 8 hours post treatment,8 hours,completely abolished
same,induction of PAIGB expression,data not shown,6 fold
